Source: patent publication US9375519B2, “Bioerodable poly(etheresteramides) and medical article uses” (SurModics, Inc., priority 2012, dated 2016)
Entries after “also recorded” stand apart in the source; their conditions may differ. Structures can show the parent of a compound that is named as a salt.

Assay: Analysis of monomer degradation in deuterated water by NMR (free phenylalanine)
Type: physicochemical
Settings: deuterated water at pH 4, 7 or 11, room temperature
Procedure: Monomers of formula II were evaluated for degradation in water at basic, neutral, and acidic pH conditions.
NMR indicated an increasing presence of free phenylalanine, a degradation byproduct, in solution over time (FIG. 1). […] This is consistent with hydrolysis of the ester bond in the Phe-TEG monomer.
Monomers were placed in deuterated water (adjusted to pH 4, 7, or 11 with DCl or NaOD) in an NMR tube and incubated at room temperature. NMR was used to detect the presence of free phenylalanine, a degradation byproduct, in the aqueous phase (see FIG. 1).

Question: With `NC(Cc1ccccc1)C(=O)OCCOCCOCCOCCOC(=O)C(N)Cc1ccccc1` (stereo not shown) [Phe-TEG, di-p-toluenesulfonic salt of bis-(phenylalanine)-tetraethylene glycol diester] as the molecule, how does the “degradation of monomer in water (free phenylalanine in solution over time by NMR)” value read?
Answer: Its value is “showed evidence of degradation; also recorded: larger under basic conditions than neutral or acidic”.
